In patent US20070027181A1, “Benzylisoquinoline derivative- or bisbenzylisoquinoline derivative-containing psychotropic agent, analgesic and/or antiphlogistic, and health food” (EDUCATION CENTER OF TRADITIONAL, priority 2004, published 2007):

Legend:
[1] = Seibu et al., Journal of Natural Products 49 (1986); no specific data; cited from earlier work
mice [2] = assay: glass ball-covering behavior test (obsessive compulsive disorders); format: in vivo, Male ICR mice
Experimental: (§1) In the following Examples, all extracts and drugs used were dissolved in physiological saline before use for i.p. administration and the dose was 0.1 ml of physiological saline per 10 g of mouse body weight in either case. All extracts and drugs were suspended in physiological saline containing 1% sodium carboxymethylcellulose before use for oral administration and the dose was 0.1 ml of 1% sodium carboxymethylcellulose-containing physiological saline suspension per 10 g of mouse body weight in either case. Male ICR mice (Japan SLC) having a body weight of 25 to 30 g were used in the tests below unless otherwise stated, and were fed in advance at a room temperature of 23±1° C. and a relative humidity of 55±5% in the environment of a cycle of 12-hour-light from 7 a.m. to 7 p.m. and 12-hour-dark from 7 p.m. to 7 a.m. for 3 to 5 days. The mice were allowed to have water and feed freely.
In evaluating glass ball-covering behavior, wood chip for breeding (beta chip) (Oriental Yeast Co., Ltd.) was placed in the transparent cage described in Example 3 to a depth of 5 cm, on which 20 glass balls (diameter: 1.5 cm) were placed evenly.
Twenty-one mice were grouped into three groups each of seven mice, to which 25 mg/kg of neferine hydrochloride (treatment group 6-1), 50 mg/kg of the same (treatment group 6-2), and physiological saline (negative control group) were administered intraperitoneally, respectively. A mouse was placed in the cage 15 minutes after administration, and the number of the glass balls not covered with the wood chip was counted by visual observation at an interval of 10 minutes. The number of balls having ⅔ or more of the surface thereof being embedded in the wood chip when the cage was observed from above was counted as the criteria for judgment.

mice [3] = assay: elevated plus-maze test (antianxiety action); format: in vivo, Male ICR mice; settings: 100 mg/kg i.p., 30 minutes after administration
Experimental: In the following Examples, all extracts and drugs used were dissolved in physiological saline before use for i.p. administration and the dose was 0.1 ml of physiological saline per 10 g of mouse body weight in either case. All extracts and drugs were suspended in physiological saline containing 1% sodium carboxymethylcellulose before use for oral administration and the dose was 0.1 ml of 1% sodium carboxymethylcellulose-containing physiological saline suspension per 10 g of mouse body weight in either case. […]
An elevated plus-maze (Neuroscience Inc.) consisting of 2 arms without high walls and 2 arms enclosed by high walls, which were crossing perpendicular to each other, was used for evaluation. A mouse was placed on the platform at the center in a position facing toward an arm without walls, and the number of times the mouse entered into both arms and the period of the mouse staying in the arms without walls were determined during a period of 5 minutes. The results were evaluated by the ratio (%) of the number of the mouse entering into the arms without walls to the total number of entering into both arms and by the ratio (%) of the period of the mouse staying in the arms without walls to the test period. […]

mice [4] = assay: histamine-induced paw edema test; format: in vivo, Male ICR mice; settings: 100 mg/kg i.p. 30 minutes before histamine 10 μg; 12 minutes after histamine
Experimental: as §1
Six mice per group were used. […] The thickness of the right hind paw was measured immediately before histamine administration and 12 minutes after histamine administration. The thickness immediately before administration was subtracted from the thickness of the paw after histamine administration, and this was adopted as a thickness of paw edema. As apparent from TABLE 18, paw edema due to histamine was suppressed by neferine. […]

SMILES: COc1ccc(C[C@@H]2c3cc(Oc4cc(C[C@@H]5c6cc(OC)c(OC)cc6CCN5C)ccc4O)c(OC)cc3CCN2C)cc1 [neferine]
- antihypertensive action [1]: exhibited an antihypertensive action
- Number of glass balls covered with wood chip After 20 minutes (mice [2]; 25 mg/kg i.p.): 7
- Number of glass balls covered with wood chip After 30 minutes (mice [2]; 25 mg/kg i.p.): 10
- Number of glass balls covered with wood chip After 10 minutes (mice [2]; 25 mg/kg i.p., placed in cage 15 minutes after administration): 4
- Number of glass balls covered with wood chip After 10 minutes (mice [2]; 50 mg/kg i.p.): 3
- Number of glass balls covered with wood chip After 20 minutes (mice [2]; 50 mg/kg i.p.): 6
- Number of glass balls covered with wood chip After 30 minutes (mice [2]; 50 mg/kg i.p.): 9
- Invasion times (%) (mice [3]; entries into arms without walls / total entries): 70%
- Staying period (%) (mice [3]; period in arms without walls / test period): 33%
- Thickness of paw edema (mm) (mice [4]): 0.32 ± 0.03 mm
